The values that follow come from US20230086303A1 (priority 2016, published 2023).

In brackets after ≈: the same amount, converted by molar mass. Starred links: 1 amine or outer side, 2 acyl side, 3 side chain; linkers in the order of their positions; H or OH if unused. Positions of bridges follow the written chain, without caps; N, C: chain ends. Non-standard residues stand in square brackets, D forms with d. Residues, ends and D or L forms follow the SMILES beside them. *: point of attachment. pTerphenylCO(4''-OnC5H11) = CCCCCOc1ccc(-c2ccc(-c3ccc(C(=O)*)cc3)cc2)cc1; Orn(4R-OH,5R-OH) = O=C([C@H](C[C@@H](O)[C@@H](O)N[*:3])N[*:1])[*:2]; hTyr(3S-OH,4S-OH) = N[C@H](C(=O)O)[C@H](O)[C@@H](O)c1ccc(O)cc1; Pro(3S-OH,4S-Me) = C[C@H]1CN[C@H](C(=O)O)[C@H]1O; Hyp = O=C(O)[C@@H]1C[C@@H](O)CN1

For data set [1] the following is noted: in vivo; cited from earlier work.
Data set [2] is described as follows: Gastrointestinal related adverse events in clinical study. As to conditions: 10 mg/day donepezil administered transdermally versus orally.
Procedure: The number of subjects with treatment related adverse events is assessed daily during the 36 day confinement period and for 7 visits over a 21 day wash-out period. Assessment of local skin irritation in the subjects of Arm 1 will also be assessed daily during the 36 day confinement period and for 7 visits over a 21 day wash-out period. Skin irritation is assessed using an 8 point categorical scale of no irritation; minimal erythema, barely perceptible; definite erythema readily visible; minimal edema or minimal popular response; erythema and papules; definite edema; erythema, edema and papules; vesicular eruption; strong reaction, spreading beyond application site.
For data set [3] the following is noted: cited from earlier work.

In the case of `CCC1(c2ccccc2)C(=O)NC(=O)NC1=O` [phenobarbital], the half-life entry in data set [1] is “greater than 48 hours”.
Turning to `CO[C@H]1C[C@@H]2CC[C@@H](C)[C@@](O)(O2)C(=O)C(=O)N2CCCC[C@H]2C(=O)O[C@H]([C@H](C)C[C@@H]2CC[C@@H](O)[C@H](OC)C2)CC(=O)[C@H](C)/C=C(\C)[C@@H](O)[C@@H](OC)C(=O)[C@H](C)C[C@H](C)/C=C/C=C/C=C/1C` [sirolimus], the half-life entry in data set [1] is “greater than 48 hours”.
`CCCCCCCCc1ccc(CCC(N)(CO)CO)cc1` [fingolimod]: the half-life entry in data set [1] is listed as “greater than 48 hours”.
For the compound `COc1cc2c(cc1OC)C(=O)C(CC1CCN(Cc3ccccc3)CC1)C2` (stereo not shown) [donepezil], in data set [2], the “number of subjects experiencing diarrhea, transdermally versus orally” value is “two-fold lower” and the “number of subjects experiencing nausea, transdermally versus orally” value is “four-fold lower”.
Regarding `C[C@]12CC3C[C@](C)(C1)C[C@@](N)(C3)C2` [free base of memantine, 3,5-dimethyladamantan-1-amine], the water solubility in data set [3] was 900 µg/mL (≈ 5.02 mM).
Regarding `O=C1CN=C(c2ccccc2Cl)c2cc([N+](=O)[O-])ccc2N1` [clonazepam], in data set [1], the half-life result is “greater than 48 hours”.
As to `CCCCCOc1ccc(-c2ccc(-c3ccc(C(=O)N[C@H]4C[C@@H](O)[C@@H](O)NC(=O)[C@@H]5[C@@H](O)[C@@H](C)CN5C(=O)[C@H]([C@@H](C)O)NC(=O)[C@H]([C@H](O)[C@@H](O)c5ccc(O)cc5)NC(=O)[C@@H]5C[C@@H](O)CN5C(=O)[C@H]([C@@H](C)O)NC4=O)cc3)cc2)cc1` [anidulafungin] ({pTerphenylCO(4''-OnC5H11)}-[Orn(4R-OH,5R-OH)]T[Hyp][hTyr(3S-OH,4S-OH)]T[Pro(3S-OH,4S-Me)]; lactam 1-C), the half-life result in data set [1] is recorded as “greater than 48 hours”.
Turning to `C[C@@H]1[C@H](O)[C@@H](C)/C=C/C=C/C=C/C=C/C=C/C=C/C=C/[C@H](O[C@@H]2O[C@H](C)[C@@H](O)[C@H](N)[C@@H]2O)C[C@@H]2O[C@](O)(C[C@@H](O)C[C@@H](O)[C@H](O)CC[C@@H](O)C[C@@H](O)CC(=O)O[C@H]1C)C[C@H](O)[C@H]2C(=O)O` [amphotericin], the half-life entry in data set [1] was “greater than 48 hours”.
Regarding `NC(=O)N1c2ccccc2C=Cc2ccccc21` [carbamazepine], the half-life entry in data set [1] was “greater than 48 hours”.
For `CCC1(c2ccccc2)C(=O)NC(=O)N(C)C1=O` (stereo not shown) [mephobarbital], in data set [1], the half-life result is given as “greater than 48 hours”.
In the case of `CNCCC=C1c2ccccc2CCc2ccccc21` [nortriptyline], in data set [1], the half-life result was “greater than 48 hours”.
In the case of `Cc1cc2c(s1)Nc1ccccc1N=C2N1CCN(C)CC1` [olanzapine], the half-life entry in data set [1] is “greater than 48 hours”.
